According to patent US20220178931A1, “Sensor” (The University of Bristol, priority 2019, published 2022):

Assays:
[1] = DPH displacement from alpha-helical barrel, competitive inhibition assay, analyte beta-carotene; conditions: barrel incubated with DPH or TMA-DPH; analyte 0.05-300 μM; fluorescence; dash = no competitive binding observed; read-out: B-carotene K1
Procedure: (§1) The four analytes below were selected based on having hydrophobic properties and being able to adopt an elongate configuration, as these were postulated to have the best chance of displacing a reporter dye.
(§2) DPH was used as the reporter dye, and displacement of DPH was recorded using a standard competitive inhibition assay. In other words, the ability of an analyte to inhibit DPH binding was recorded by the inhibition constant Ki. Alpha-helical barrels were incubated with DPH, or its cationic variant 1-(4-trimethylammoniumphenyl)-6-phenyl-1,3,5-hexatriene p-toluenesulfonate (TMA-DPH). Analyte was added (0.05-300 μM) and the fluorescence signal measured.

[2] = DPH displacement from alpha-helical barrel, competitive inhibition assay, analyte farnesol; conditions: barrel incubated with DPH or TMA-DPH; analyte 0.05-300 μM; fluorescence; dash = no competitive binding observed; read-out: Famesol K1
Procedure: as §1, §2

[3] = DPH reporter dye binding to alpha-helical barrel lumen (fluorescence titration); conditions: DPH 1 μM incubated with alpha-helical barrel 0.5-500 μM for up to 2 hours; fluorescent signal
Procedure: (§3) The dyes 1,6-diphenyl-1,3,5-hexatriene (DPH) and 6-propionyl-2-dimethylaminonaphthalene (prodan) were assayed against a number of alpha-helical barrels to determine their dissociation constants, KD. DPH or prodan (1 μM) was incubated with varying concentrations of alpha-helical barrel (0.5-500 μM) for up to 2 hours, and the fluorescent signal measured at the corresponding emission wavelength.

[4] = Prodan reporter dye binding to alpha-helical barrel lumen (fluorescence titration); conditions: for Kd: prodan 1 μM incubated with alpha-helical barrel 0.5-500 μM for up to 2 hours, fluorescent signal, dash = did not bind; for prodan binding to alpha-helical barrel (in words): summary of KD table
Procedure: as §3

[5] = DPH displacement from alpha-helical barrel, competitive inhibition assay, analyte retinol; format: binding; conditions: barrel incubated with DPH or TMA-DPH; analyte 0.05-300 μM; fluorescence; read-out: Retinol K1
Procedure: as §1, §2

[6] = DPH displacement from alpha-helical barrel, competitive inhibition assay, analyte palmitic acid; format: binding; conditions: barrel incubated with DPH or TMA-DPH; analyte 0.05-300 μM; fluorescence; read-out: Palmitic acid K1
Procedure: as §1, §2

Row | Ki [1] [µM] | Ki [2] [µM] | Kd [3] [µM] | Kd [4] [µM] | prodan binding to alpha-helical barrel (in words) [4] | Ki [5] [µM] | Ki [6] [µM] | Sequence
1 | > 300 | 23.9 ± 2.4 | 7.1 ± 1.3 | > 500 | did not bind | 6.4 ± 3.2 | 1 ± 0.3 | GELKAIAQELKAIAKELKAIAWELKAIAQG [CC-Hex, 6 helices in barrel]
2 | 12.1 ± 5.4 | 0.6 ± 0.2 | 8.9 ± 2.2 | 40.5 ± 4 |  | 4 ± 0.7 | 0.9 ± 0.3 | GEIAQALREIAKALREIAWALREIAQALRG [CC-Hept, 7 helices in barrel]
3 | > 300 | 8.6 ± 1.3 | 9.5 ± 1.1 | 39.2 ± 6.8 |  | 4.6 ± 1.9 | 1.1 ± 0.3 | GEIAKSLKEIAKSLKEIAWSLKEIAKSLKG [CC-Hex2, 6 helices in barrel]
4 | > 300 | > 300 | 22.4 ± 4.3 | > 500 | did not bind | 14.8 ± 4.1 | 1.1 ± 0.5 | GKIEQILQKIEKILQKIEWILQKIEQILQG [CC-Pent, alpha helix self-assembling into alpha-helical barrel]
